Several values for one entry are separate records, joined by “and”; a condition that tells them apart may be missing. Equal entries are not always repeated.
Tested on: CD strain 630
Test: Example 7: Holloway model of CDI, GlcNAc or glucosamine in drinking water
Conditions: for Ethanol resistant CFU, CFU/g faeces: individual mice

Compound	Water consumption: Daily consumption per mouse (20 mg/ml in drinking water) [mL]	Ethanol resistant CFU, CFU/g faeces (20 mg/ml in drinking water, hydrochloride)	Water consumption: Daily consumption per mouse (50 mg/ml in drinking water) [mL]	Ethanol resistant CFU, CFU/g faeces (50 mg/ml in drinking water) [CFU/g faeces]	Water consumption: Daily consumption per mouse (100 mg/ml in drinking water) [mL]	Ethanol resistant CFU, CFU/g faeces (100 mg/ml in drinking water, hydrochloride)	CD colonisation (levels as low as 20 mg/ml in drinking water, summary in words)	CD infections (CDI) in mice (water containing 20 mg/ml, conclusion in words)	CD colonisation (mouse, in vivo)	CD infections (CDI) in mice (mouse, in vivo)
Cl.N[C@H]1C(O)O[C@H](CO)[C@@H](O)[C@@H]1O (stereo partly shown) [Glucosamine, Glucosamine hydrochloride]	4.2	0.00E+00 CFU/g faeces (5×) and 1.90E+06 CFU/g faeces	2.8	0.00E+00	1	0.00E+00 CFU/g faeces (4×) and 1.70E+05 CFU/g faeces and 8.00E+04 CFU/g faeces	could suppress CD colonisation	prevented CD infections		
CC(=O)N[C@H]1C(O)O[C@H](CO)[C@@H](O)[C@@H]1O (stereo partly shown) [GlcNAc, N-acetyl-glucosamine]									could suppress CD colonisation	prevented CD infections

Source: patent publication US20220280579A1, “Formulations for Prevention or Reduction of C. Difficile Infections” (priority 2019, published 2022)
